Results taken from patent US7674807B2, “Heterocycle-substituted n-phenyl-phthalamide derivatives, related compounds and their use as insecticides” (Bayer CropScience AG, priority 2004, dated 2010).

Columns and labels:
[1] = test system: larva of Spodoptera litura; assay: Test against larva of Spodoptera litura (leaf dip, sweet potato leaves); format: in vivo; settings: 20 ppm concentration of the active component; third instar larvae; counted after 7 days; 25° C.
Experimental: Preparation of Test Solution:
In order to make an appropriate formulation of an active compound, 1 part by weight of the active compound was mixed with the above-mentioned amount of solvent containing the above-mentioned amount of emulsifier and the mixture was diluted with water to a prescribed concentration.
Leaves of sweet potato were soaked in the test solution diluted to a prescribed concentration with water, dried in the air and put in a dish of 9 cm diameter.
10 larvae of Spodoptera litura at the third instar were placed on the leaves and kept in a room at the constant temperature of 25° C. After 2 and 4 days further leaves of sweet potato were added and after 7 days the number of dead larvae was counted and the rate of death was calculated.
In this test the results of 2 dishes at 1 section were averaged.

[2] = test system: larva of Cnaphalocrocis medinalis Guenee; assay: Test against larva of Cnaphalocrocis medinalis Guenee (sprayed paddy rice foliage); format: in vivo; settings: 20 ppm concentration of the active component; second instar larvae; counted after 7 days; 25° C.
Experimental: Paddy rice (variety: Tamanishiki) planted in a pot was treated by spraying 50 ml per pot of the diluted aqueous solution of the prescribed concentration of the active compound prepared in the same manner as in the above-mentioned Biological Test Example 1. After the treated rice plant was dried in the air, their foliage part was cut in 4-5 cm length, which were put in a dish with 9 cm diameter with a sheet of filter paper and 2 ml of water. Five larvae of Cnaphalocrocis medinalis Guenee at the second instar were put in the dish that was placed in a room at the constant temperature of 25° C. After 2 and 4 days, each rest (each ⅓ amount) of foliage parts of rice plant were cut in the same manner and added to the dish. After 7 days the number of dead larvae was counted and the rate of death was calculated. In this test the results of 2 dishes at 1 section were averaged.

Row | Compound | controlling effect, rate of death [1] [%] | controlling effect, rate of death [2] [%]
1 | Cc1cc(Cn2nc(C(F)(F)F)cc2C(F)(F)F)ccc1NC(=O)c1cccc(Cl)c1C(=O)NC(C)C[S+](C)[O-] (mixture of isomers) [compound 13] | 100 | 100
2 | Cc1cc(Cn2nc(C(F)(F)F)cc2C(F)(F)F)ccc1NC(=O)c1cccc(Cl)c1C(=O)NC(C)C[S+](C)[O-] (mixture of isomers) [compound 14] | 100 | 100
3 | Cc1cc(Cn2nc(C(F)(F)F)cc2C(F)(F)F)ccc1NC(=O)c1cccc(Br)c1C(=O)NC(C)C[S+](C)[O-] (mixture of isomers) [compound 51] | 100 | 100
4 | Cc1cc(Cn2nc(C(F)(F)F)cc2C(F)(F)F)ccc1NC(=O)c1cccc(I)c1C(=O)NC(C)C[S+](C)[O-] (mixture of isomers) [compound 87] | 100 | 100
5 | Cc1cc(Cn2nc(C(F)(F)F)cc2C(F)(F)F)ccc1NC(=O)c1cccc(I)c1C(=O)NC(C)C[S+](C)[O-] (mixture of isomers) [compound 88] | 100 | 100
6 | Cc1cc(Cn2nc(C(F)(F)F)cc2C(F)(F)F)ccc1NC(=O)c1cccc(Cl)c1C(=O)NC(C)(C)C[S+](C)[O-] (racemic) [compound 9] | 100 | 100
7 | CSCC(C)NC(=O)c1c(Cl)cccc1C(=O)Nc1ccc(Cn2nc(C(F)(F)F)cc2C(F)(F)F)cc1C (racemic) [compound 11] | 100 | 100
8 | Cc1cc(Cn2nc(C(F)(F)F)cc2C(F)(F)F)ccc1NC(=O)c1cccc(Cl)c1C(=O)NC(C)CS(C)(=O)=O (racemic) [compound 15] | 100 | 100
9 | CSCC(C)NC(=O)c1c(Br)cccc1C(=O)Nc1ccc(Cn2nc(C(F)(F)F)cc2C(F)(F)F)cc1C (racemic) [compound 48] | 100 | 100
10 | Cc1cc(Cn2nc(C(F)(F)F)cc2C(F)(F)F)ccc1NC(=O)c1cccc(Br)c1C(=O)NC(C)CS(C)(=O)=O (racemic) [compound 52] | 100 | 100
11 | CSCC(C)NC(=O)c1c(I)cccc1C(=O)Nc1ccc(Cn2nc(C(F)(F)F)cc2C(F)(F)F)cc1C (racemic) [compound 85] | 100 | 100
12 | Cc1cc(Cn2nc(C(F)(F)F)cc2C(F)(F)F)ccc1NC(=O)c1cccc(I)c1C(=O)NC(C)CS(C)(=O)=O (racemic) [compound 89] | 100 | 100
13 | CSCC(C)NC(=O)c1c(I)cccc1C(=O)Nc1ccc(Cn2nc(C(F)(F)F)cc2OC(F)F)cc1C (racemic) [compound 103] | 100 | 100
14 | Cc1cc(Cn2nc(C(F)(F)F)cc2OC(F)F)ccc1NC(=O)c1cccc(I)c1C(=O)NC(C)CS(C)(=O)=O (racemic) [compound 107] | 100 | 100
15 | CSCC(C)(C)NC(=O)c1c(Cl)cccc1C(=O)Nc1ccc(Cn2nc(C(F)(F)F)cc2C(F)(F)F)cc1C [compound 8] | 100 | 100
16 | Cc1cc(Cn2nc(C(F)(F)F)cc2C(F)(F)F)ccc1NC(=O)c1cccc(Cl)c1C(=O)NC(C)(C)CS(C)(=O)=O [compound 10] | 100 | 100
17 | CSCC(C)NC(=O)c1c(Cl)cccc1C(=O)Nc1ccc(Cn2nc(C(F)(F)F)cc2C(F)(F)F)cc1C (stereo not drawn) [compound 12] | 100 | 100
18 | Cc1cc(Cn2nc(C(F)(F)F)cc2C(F)(F)F)ccc1NC(=O)c1cccc(Cl)c1C(=O)NC(C)CS(C)(=O)=O (stereo not drawn) [compound 16] | 100 | 100
19 | CSCC(C)(C)NC(=O)c1c(Br)cccc1C(=O)Nc1ccc(Cn2nc(C(F)(F)F)cc2C(F)(F)F)cc1C [compound 45] | 100 | 100
20 | Cc1cc(Cn2nc(C(F)(F)F)cc2C(F)(F)F)ccc1NC(=O)c1cccc(Br)c1C(=O)NC(C)(C)CS(C)(=O)=O [compound 47] | 100 | 100

Row | Compound | controlling effect, rate of death [1] [%] | controlling effect, rate of death [2] [%]
21 | CSCC(C)NC(=O)c1c(Br)cccc1C(=O)Nc1ccc(Cn2nc(C(F)(F)F)cc2C(F)(F)F)cc1C (stereo not drawn) [compound 49] | 100 | 100
22 | Cc1cc(Cn2nc(C(F)(F)F)cc2C(F)(F)F)ccc1NC(=O)c1cccc(Br)c1C(=O)NC(C)CS(C)(=O)=O (stereo not drawn) [compound 53] | 100 | 100
23 | Cc1cc(Cn2nc(C(F)(F)F)cc2C(F)(F)F)ccc1NC(=O)c1cccc(I)c1C(=O)NC(C)C [compound 81] | 100 | 100
24 | CSCC(C)(C)NC(=O)c1c(I)cccc1C(=O)Nc1ccc(Cn2nc(C(F)(F)F)cc2C(F)(F)F)cc1C [compound 82, N^1-[4-(3,5-bistrifluoromethylpyrazol-1-ylmethyl)-2-methylphenyl]-N^2-(1,1-dimethyl-2-methylsulfanylethyl)-3-iodophthalamide] | 100 | 100
25 | Cc1cc(Cn2nc(C(F)(F)F)cc2C(F)(F)F)ccc1NC(=O)c1cccc(I)c1C(=O)NC(C)(C)C[S+](C)[O-] (stereo not drawn) [compound 83, N^1-{4-[3,5-bis(trifluoromethyl)-1H-pyrazol-1-ylmethyl]-2-methylphenyl}-N^2-(2-methanesulfinyl-1,1-dimethylethyl)-3-iodophthalamide] | 100 | 100
26 | Cc1cc(Cn2nc(C(F)(F)F)cc2C(F)(F)F)ccc1NC(=O)c1cccc(I)c1C(=O)NC(C)(C)CS(C)(=O)=O [compound 84, N^1-{4-[3,5-bis(trifluoromethyl)-1H-pyrazol-1-ylmethyl]-2-methylphenyl}-3-iodo-N^2-(2-methanesulfonyl-1,1-dimethylethyl)phthalamide] | 100 | 100
27 | CSCC(C)NC(=O)c1c(I)cccc1C(=O)Nc1ccc(Cn2nc(C(F)(F)F)cc2C(F)(F)F)cc1C (stereo not drawn) [compound 86] | 100 | 100
28 | Cc1cc(Cn2nc(C(F)(F)F)cc2C(F)(F)F)ccc1NC(=O)c1cccc(I)c1C(=O)NC(C)CS(C)(=O)=O (stereo not drawn) [compound 90] | 100 | 100
29 | CCSCC(C)NC(=O)c1c(I)cccc1C(=O)Nc1ccc(Cn2nc(C(F)(F)F)cc2C(F)(F)F)cc1C (stereo not drawn) [compound 91] | 100 | 100
30 | CCS(=O)(=O)CC(C)NC(=O)c1c(I)cccc1C(=O)Nc1ccc(Cn2nc(C(F)(F)F)cc2C(F)(F)F)cc1C (stereo not drawn) [compound 93] | 100 | 100
31 | CSCC(C)NC(=O)c1c(OS(C)(=O)=O)cccc1C(=O)Nc1ccc(Cn2nc(C(F)(F)F)cc2C(F)(F)F)cc1C (stereo not drawn) [compound 128] | 100 | 100
32 | Cc1cc(Cn2nc(C(F)(F)F)cc2C(F)(F)F)ccc1NC(=O)c1cccc(OS(C)(=O)=O)c1C(=O)NC(C)CS(C)(=O)=O (stereo not drawn) [compound 132] | 100 | 100
33 | CSCC(C)(C)NC(=O)c1c(Cl)cccc1C(=O)Nc1ccc(Cn2nc(C(F)(F)F)nc2C(F)(F)F)cc1C [compound 137] | 100 | 100
34 | Cc1cc(Cn2nc(C(F)(F)F)nc2C(F)(F)F)ccc1NC(=O)c1cccc(Cl)c1C(=O)NC(C)(C)C[S+](C)[O-] (stereo not drawn) [compound 138] | 100 | 100
35 | Cc1cc(Cn2nc(C(F)(F)F)nc2C(F)(F)F)ccc1NC(=O)c1cccc(Cl)c1C(=O)NC(C)(C)CS(C)(=O)=O [compound 139] | 100 | 100
36 | Cc1cc(Cn2nc(C(F)(F)F)nc2C(F)(F)F)ccc1NC(=O)c1cccc(Cl)c1C(=O)NC(C)C[S+](C)[O-] (stereo not drawn) [compound 142] | 100 | 100
37 | Cc1cc(Cn2nc(C(F)(F)F)nc2C(F)(F)F)ccc1NC(=O)c1cccc(Cl)c1C(=O)NC(C)C[S+](C)[O-] (stereo not drawn) [compound 143] | 100 | 100
38 | Cc1cc(Cn2nc(C(F)(F)F)nc2C(F)(F)F)ccc1NC(=O)c1cccc(Cl)c1C(=O)NC(C)CS(C)(=O)=O (stereo not drawn) [compound 145] | 100 | 100
39 | CSCC(C)(C)NC(=O)c1c(Cl)cccc1C(=O)Nc1ccc(Cn2nc(C(F)(F)C(F)(F)F)nc2C(F)(F)F)cc1C [compound 149] | 100 | 100
